These results are taken from ChEMBL document CHEMBL4420076, “Amylin and calcitonin receptor agonist” (2017).

Structures are written as SMILES. Numbered stars: 1 amine (or outer) side, 2 acyl side, 3 side chain; on linkers, the order of the positions; unused ones are H or OH. Peptide text beside a SMILES is read from it. * marks the point of attachment. C18 diacid = O=C(O)CCCCCCCCCCCCCCCCC(=O)*; γGlu = O=C(O)[C@H](CCC(=O)[*:2])N[*:1]; C14 diacid = O=C(O)CCCCCCCCCCCCC(=O)*; AEEA = NCCOCCOCC(=O)O

A short description of data set [1]: Solubility in 100 mM bistrispropane buffer at pH 6.0 incubated for 18 hrs by UPLC analysis. In kind it is physicochemical.
Data set [2] in a line: Solubility in 100 mM bistrispropane buffer at pH 7.5 incubated for 18 hrs by UPLC analysis. It counts as physicochemical.
The nature of data set [3]: Solubility in 100 mM glycylglycine buffer at pH 5.0 incubated for 18 hrs by UPLC analysis. In kind it is physicochemical.
Data set [4] is described as follows: Solubility in 100 mM glycylglycine buffer at pH 3.0 incubated for 18 hrs by UPLC analysis. It counts as physicochemical.
Data set [5] deals with T1, Amylin receptor AMY3; CALCR/RAMP3 (Homo sapiens, UniProt O60896+P30988).
T1 sequence (P30988 whole entry): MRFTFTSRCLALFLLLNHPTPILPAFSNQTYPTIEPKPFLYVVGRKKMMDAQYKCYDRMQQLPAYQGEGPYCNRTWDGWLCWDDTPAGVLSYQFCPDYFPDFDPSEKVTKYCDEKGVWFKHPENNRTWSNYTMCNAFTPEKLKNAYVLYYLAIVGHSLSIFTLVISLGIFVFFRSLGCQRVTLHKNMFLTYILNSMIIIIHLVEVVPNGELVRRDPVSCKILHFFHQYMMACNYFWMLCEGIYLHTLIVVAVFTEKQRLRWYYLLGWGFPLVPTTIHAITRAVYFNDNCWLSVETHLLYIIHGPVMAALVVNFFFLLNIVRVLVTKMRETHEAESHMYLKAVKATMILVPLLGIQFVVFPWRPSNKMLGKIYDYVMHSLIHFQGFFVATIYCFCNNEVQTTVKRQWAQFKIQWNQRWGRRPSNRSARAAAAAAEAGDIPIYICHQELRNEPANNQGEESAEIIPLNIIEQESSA
T1 sequence (O60896 whole entry): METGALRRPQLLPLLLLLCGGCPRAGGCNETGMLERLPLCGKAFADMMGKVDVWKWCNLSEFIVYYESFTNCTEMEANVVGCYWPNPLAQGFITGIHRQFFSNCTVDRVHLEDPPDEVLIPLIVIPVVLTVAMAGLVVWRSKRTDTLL
Nature of the data set: Displacement of [125I]-labeled rat amylin from human amylin receptor expressed in BHK tkts13 whole cells co-expressing RAMP3 incubated for 60 mins by scintillation proximity assay. It counts as cell-based. In general terms: In a radioligand displacement assay an active substance lowers the binding of a labelled ligand.

Data set [6] is described as follows: Solubility in 100 mM glycylglycine buffer at pH 4.0 incubated for 18 hrs by UPLC analysis. It counts as physicochemical.
For data set [7], the target named is T1, Amylin receptor AMY3; CALCR/RAMP3. Nature of the data set: Agonist activity at human amylin receptor expressed in BHK570 cells co-expressing RAMP3 assessed as increase in intracellular cAMP concentration incubated for 3 hrs in absence of albumin by CRE luciferase reporter gene assay. In kind it is functional, cell-based. For orientation: Reporter assays use an easily measured gene product as a stand-in for the process of interest.

Data set [8] concerns the target T2, Calcitonin receptor (Homo sapiens, UniProt P30988).
T2 sequence (P30988 whole entry): T1 sequence (P30988 whole entry)
Nature of the data set: Agonist activity at human calcitonin receptor expressed in BHK570 cells assessed as increase in intracellular cAMP concentration incubated for 3 hrs in absence of albumin by CRE luciferase reporter gene assay. In kind it is functional, cell-based.

Data set [9] relates to Rattus norvegicus. Nature of the data set: Reduction in food intake in Sprague-Dawley rat at 3 nmol/kg measured 24 to 48 hrs post dose relative to control. In kind it is functional. On the set-up: scale not given: the % may be the effect or the level left.
Data set [10] in a line: Solubility in 100 mM bistrispropane buffer at pH 6.5 incubated for 18 hrs by UPLC analysis. In kind it is physicochemical.
The nature of data set [11]: Solubility in 100 mM bistrispropane buffer at pH 8.0 incubated for 18 hrs by UPLC analysis. It counts as physicochemical.
Data set [12] deals with Rattus norvegicus. Nature of the data set: Reduction in food intake in Sprague-Dawley rat at 3 nmol/kg measured 0 to 24 hrs post dose relative to control. It counts as functional. The arrangement: scale not given: the % may be the effect or the level left.
A short description of data set [13]: Solubility in 100 mM bistrispropane buffer at pH 7.0 incubated for 18 hrs by UPLC analysis. In kind it is physicochemical.

In general, solubility refers to the dissolved amount per volume that the medium holds. For orientation: IC50 means the concentration that gives 50% inhibition. In general, EC50 refers to the midpoint of the concentration-response curve. Turning to `CC(C)C[C@H](NC(=O)[C@H](C)NC(=O)[C@H](C)NC(=O)[C@@H](NC(=O)[C@H](CO)NC(=O)[C@H](CC(C)C)NC(=O)[C@H](CCC(=O)O)NC(=O)[C@H](CO)NC(=O)[C@H](C)NC(=O)[C@H](CCC(=O)O)NC(=O)COCCOCCNC(=O)COCCOCCNC(=O)COCCOCCNC(=O)COCCOCCNC(=O)CC[C@H](NC(=O)CC[C@H](NC(=O)CCCCCCCCCCCCC(=O)O)C(=O)O)C(=O)O)[C@@H](C)O)C(=O)NCC(=O)N[C@@H](CCCNC(=N)N)C(=O)N[C@@H](CC(C)C)C(=O)N[C@@H](CO)C(=O)N[C@@H](C)C(=O)N[C@@H](CCC(=O)O)C(=O)N[C@@H](CC(C)C)C(=O)N[C@@H](Cc1cnc[nH]1)C(=O)N[C@@H](CCC(=O)O)C(=O)N[C@@H](CC(C)C)C(=O)N[C@@H](C)C(=O)N[C@H](C(=O)N[C@@H](CC(C)C)C(=O)N1CCC[C@H]1C(=O)N[C@@H](CCCNC(=N)N)C(=O)N[C@H](C(=O)N[C@@H](CCC(=O)O)C(=O)N[C@H](C(=O)NCC(=O)N1CCC[C@H]1C(=O)N[C@@H](CCC(=O)O)C(=O)N[C@@H](CO)C(=O)N1CCC[C@H]1C(N)=O)[C@@H](C)O)[C@@H](C)O)[C@@H](C)O` ({C14 diacid-γGlu-γGlu-AEEA-AEEA-AEEA-AEEA}-EASELSTAALGRLSAELHELATLPRTETGPESP-NH2), the solubility at 18 h in [1], in data set [2], in [3], in [4], in [6] and in data set [10] was at least 200 µM throughout. For the same molecule, the solubility at 18 h in data set [11] and in data set [13] was at least 200 µM throughout. Besides, the IC50 in data set [5] is 8.38 nM. In addition, the EC50 is 0.027 nM in data set [7] and 7 pM in [8]. Further, the Activity in data set [9] was -3%; in [12], 3%.

As to `CC(C)C[C@H](NC(=O)[C@H](C)NC(=O)[C@H](C)NC(=O)[C@@H](NC(=O)[C@H](CO)NC(=O)[C@H](CC(C)C)NC(=O)[C@H](CCC(=O)O)NC(=O)[C@H](CO)NC(=O)[C@H](C)NC(=O)[C@H](CCC(=O)O)NC(=O)CCCCCCCCCCCCC(=O)O)[C@@H](C)O)C(=O)NCC(=O)N[C@@H](CCCNC(=N)N)C(=O)N[C@@H](CC(C)C)C(=O)N[C@@H](CO)C(=O)N[C@@H](C)C(=O)N[C@@H](CCC(=O)O)C(=O)N[C@@H](CC(C)C)C(=O)N[C@@H](Cc1cnc[nH]1)C(=O)N[C@@H](CCC(=O)O)C(=O)N[C@@H](CC(C)C)C(=O)N[C@@H](C)C(=O)N[C@H](C(=O)N[C@@H](CC(C)C)C(=O)N1CCC[C@H]1C(=O)N[C@@H](CCCNC(=N)N)C(=O)N[C@H](C(=O)N[C@@H](CCC(=O)O)C(=O)N[C@H](C(=O)NCC(=O)N1CCC[C@H]1C(=O)N[C@@H](CCC(=O)O)C(=O)N[C@@H](CO)C(=O)N1CCC[C@H]1C(N)=O)[C@@H](C)O)[C@@H](C)O)[C@@H](C)O` ({C14 diacid}-EASELSTAALGRLSAELHELATLPRTETGPESP-NH2), the solubility at 18 h in data set [1], in data set [2], in data set [3], in data set [4], in data set [6] and in data set [10] was at least 200 µM throughout. Further, the solubility at 18 h in [11] and in data set [13] was at least 200 µM each time. The IC50 in data set [5] was 1.19 nM. Further, the EC50 in [7] was 0.006 nM; in data set [8], 2 pM. The Activity in [9] is -4%; in [12], 13.5%.

Consider `CC(C)C[C@H](NC(=O)[C@H](C)NC(=O)[C@H](C)NC(=O)[C@@H](NC(=O)[C@H](CO)NC(=O)[C@H](CC(C)C)NC(=O)[C@H](CCC(=O)O)NC(=O)[C@H](CO)NC(=O)[C@H](C)NC(=O)[C@H](CCC(=O)O)NC(=O)CCCCCCCCCCCCCCCCC(=O)O)[C@@H](C)O)C(=O)NCC(=O)N[C@@H](CCCNC(=N)N)C(=O)N[C@@H](CC(C)C)C(=O)N[C@@H](CO)C(=O)N[C@@H](C)C(=O)N[C@@H](CCC(=O)O)C(=O)N[C@@H](CC(C)C)C(=O)N[C@@H](C)C(=O)N[C@@H](CCC(=O)O)C(=O)N[C@@H](CC(C)C)C(=O)N[C@@H](C)C(=O)N[C@H](C(=O)N[C@@H](CC(C)C)C(=O)N1CCC[C@H]1C(=O)N[C@@H](CCCNC(=N)N)C(=O)N[C@H](C(=O)N[C@@H](CCC(=O)O)C(=O)N[C@H](C(=O)NCC(=O)N1CCC[C@H]1C(=O)N[C@@H](CCC(=O)O)C(=O)N[C@@H](CO)C(=O)N1CCC[C@H]1C(N)=O)[C@@H](C)O)[C@@H](C)O)[C@@H](C)O` ({C18 diacid}-EASELSTAALGRLSAELAELATLPRTETGPESP-NH2), for which the solubility at 18 h in [1], in data set [2], in data set [3], in data set [4], in data set [6] and in data set [10] was at least 200 µM in each case. The solubility at 18 h in data set [11] and in data set [13] was at least 200 µM in each case. Further, in data set [5], the half-maximal inhibitory concentration (IC50) is 0.329 nM. The half-maximal effective concentration (EC50) is 0.004 nM in data set [7] and 3 pM in data set [8]. Further, the values for the Activity in data set [9] and in data set [12] were 18% and 70%, respectively.

Take `CC(C)C[C@H](NC(=O)[C@H](CCC(=O)O)NC(=O)[C@H](Cc1cnc[nH]1)NC(=O)[C@H](CC(C)C)NC(=O)[C@H](CCC(=O)O)NC(=O)[C@H](C)NC(=O)[C@H](CO)NC(=O)[C@H](CC(C)C)NC(=O)[C@H](CCCNC(=N)N)NC(=O)CNC(=O)[C@H](CC(C)C)NC(=O)[C@@H](NC(=O)[C@H](C)NC(=O)[C@@H](NC(=O)[C@H](CO)NC(=O)[C@H](CC(C)C)NC(=O)[C@H](CCC(=O)O)NC(=O)[C@H](CO)NC(=O)[C@H](C)NC(=O)[C@H](CCC(=O)O)NC(=O)CCCCCCCCCCCCCCCCC(=O)O)[C@@H](C)O)C(C)C)C(=O)N[C@@H](C)C(=O)N[C@H](C(=O)N[C@@H](CC(C)C)C(=O)N1CCC[C@H]1C(=O)N1CCC[C@H]1C(=O)N[C@H](C(=O)N[C@@H](CCC(=O)O)C(=O)N[C@H](C(=O)NCC(=O)N1CCC[C@H]1C(=O)N[C@@H](CCC(=O)O)C(=O)N[C@@H](CO)C(=O)N1CCC[C@H]1C(N)=O)[C@@H](C)O)[C@@H](C)O)[C@@H](C)O` ({C18 diacid}-EASELSTAVLGRLSAELHELATLPPTETGPESP-NH2): the solubility at 18 h in data set [1], in [2], in data set [3], in [4], in data set [6] and in [10] was at least 200 µM throughout. Moreover, the solubility at 18 h in data set [11] and in data set [13] was at least 200 µM each time. In data set [5], the IC50 is 0.383 nM. Moreover, the EC50 was 0.014 nM in data set [7] and 6 pM in data set [8]. For the same molecule, the Activity in data set [9] was found to be 12%; in data set [12], 62%.
